Legend:
CYP3A4 = CYP3A4 (Homo sapiens, UniProt P08684); experiment: Inhibition of human CYP3A4 at 10 uM incubated for 60 mins by LC/MS/MS analysis relative to control; type: ADME
[1] = target: Cholesterol 24-hydroxylase (Homo sapiens, UniProt Q9Y6A2); experiment: biochemical
Description: Inhibition of CH24H expressing human 293-F cells for 15 minutes using [14C] cholesterol as substrate and measured after 5 hrs by trypan blue staining based thin-layer chromatography

[2] = Lipophilicity, log D of compound at pH 7.4; conditions: buffer
CYP2C8 = target: T1, CYP2C8 (Homo sapiens, UniProt P10632); experiment: Inhibition of human CYP2C8 at 10 uM incubated for 60 mins by LC/MS/MS analysis relative to control; type: ADME
T1 sequence (P10632 whole entry): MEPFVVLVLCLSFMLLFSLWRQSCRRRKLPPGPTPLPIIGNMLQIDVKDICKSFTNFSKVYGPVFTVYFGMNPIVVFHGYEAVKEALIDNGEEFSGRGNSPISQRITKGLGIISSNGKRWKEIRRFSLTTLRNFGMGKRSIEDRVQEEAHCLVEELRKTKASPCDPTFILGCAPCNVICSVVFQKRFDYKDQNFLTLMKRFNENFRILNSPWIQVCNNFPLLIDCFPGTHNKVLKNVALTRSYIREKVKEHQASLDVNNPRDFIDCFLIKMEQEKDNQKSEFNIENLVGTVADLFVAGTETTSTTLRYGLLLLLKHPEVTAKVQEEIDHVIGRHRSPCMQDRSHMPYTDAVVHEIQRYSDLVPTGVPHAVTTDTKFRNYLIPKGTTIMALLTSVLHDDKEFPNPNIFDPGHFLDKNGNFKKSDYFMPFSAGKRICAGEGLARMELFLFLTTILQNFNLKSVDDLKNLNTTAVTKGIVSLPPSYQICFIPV

[3] = Plasma concentration in C57BL/6N mouse at 30 mg/kg, po and measured at 1 hr by LC/MS/MS analysis; type: ADME, organism-based
[4] = Drug concentration in brain of C57BL/6N mouse at 30 mg/kg,po and measured at 1 hrs by LC/MS/MS analysis; type: ADME, organism-based; conditions: read-out: Ct
CYP2D6 = CYP2D6 (Homo sapiens, UniProt P10635); experiment: Inhibition of human CYP2D6 at 10 uM incubated for 60 mins by LC/MS/MS analysis relative to control; type: ADME
Brain = experiment: In vivo inhibition of […] CH24H in C57BL/6N mouse brain assessed as reduction in 24HC level at 30 mg/kg, po for 3 days by HPLC analysis; type: functional; conditions: 72 h, time 3 day
CYP2C9 = CYP2C9 (Homo sapiens, UniProt P11712); experiment: Inhibition of human CYP2C9 at 10 uM incubated for 60 mins by LC/MS/MS analysis relative to control; type: ADME
CYP2C9, sequence (P11712 whole entry): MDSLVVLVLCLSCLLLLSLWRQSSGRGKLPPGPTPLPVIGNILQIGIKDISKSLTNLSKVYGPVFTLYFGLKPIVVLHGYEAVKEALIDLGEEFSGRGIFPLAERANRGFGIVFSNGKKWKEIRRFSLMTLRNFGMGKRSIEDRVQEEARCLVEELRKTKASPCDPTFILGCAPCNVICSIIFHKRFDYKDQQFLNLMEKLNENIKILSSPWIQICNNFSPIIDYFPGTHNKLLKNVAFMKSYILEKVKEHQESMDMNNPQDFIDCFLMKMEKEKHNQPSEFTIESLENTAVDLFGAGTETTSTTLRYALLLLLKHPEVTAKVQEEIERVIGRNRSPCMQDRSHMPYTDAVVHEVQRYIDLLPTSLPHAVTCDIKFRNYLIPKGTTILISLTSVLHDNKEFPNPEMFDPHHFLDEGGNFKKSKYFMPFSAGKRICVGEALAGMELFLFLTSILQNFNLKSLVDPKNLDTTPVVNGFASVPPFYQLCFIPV

CYP3A4, sequence (P08684 whole entry): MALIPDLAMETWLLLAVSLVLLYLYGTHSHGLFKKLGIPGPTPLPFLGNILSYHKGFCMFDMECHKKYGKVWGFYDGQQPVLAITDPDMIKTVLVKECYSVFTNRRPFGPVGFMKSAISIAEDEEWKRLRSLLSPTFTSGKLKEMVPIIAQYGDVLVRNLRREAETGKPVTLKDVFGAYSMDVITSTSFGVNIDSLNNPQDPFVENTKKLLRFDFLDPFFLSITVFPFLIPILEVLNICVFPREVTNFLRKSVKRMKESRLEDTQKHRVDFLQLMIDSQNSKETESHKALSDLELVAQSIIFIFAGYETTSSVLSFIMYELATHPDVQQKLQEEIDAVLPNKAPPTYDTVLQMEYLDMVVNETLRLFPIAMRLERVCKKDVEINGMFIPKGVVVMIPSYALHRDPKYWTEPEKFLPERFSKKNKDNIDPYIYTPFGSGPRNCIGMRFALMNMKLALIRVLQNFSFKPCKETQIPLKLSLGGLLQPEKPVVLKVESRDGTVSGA
Cholesterol 24-hydroxylase, sequence (Q9Y6A2 whole entry): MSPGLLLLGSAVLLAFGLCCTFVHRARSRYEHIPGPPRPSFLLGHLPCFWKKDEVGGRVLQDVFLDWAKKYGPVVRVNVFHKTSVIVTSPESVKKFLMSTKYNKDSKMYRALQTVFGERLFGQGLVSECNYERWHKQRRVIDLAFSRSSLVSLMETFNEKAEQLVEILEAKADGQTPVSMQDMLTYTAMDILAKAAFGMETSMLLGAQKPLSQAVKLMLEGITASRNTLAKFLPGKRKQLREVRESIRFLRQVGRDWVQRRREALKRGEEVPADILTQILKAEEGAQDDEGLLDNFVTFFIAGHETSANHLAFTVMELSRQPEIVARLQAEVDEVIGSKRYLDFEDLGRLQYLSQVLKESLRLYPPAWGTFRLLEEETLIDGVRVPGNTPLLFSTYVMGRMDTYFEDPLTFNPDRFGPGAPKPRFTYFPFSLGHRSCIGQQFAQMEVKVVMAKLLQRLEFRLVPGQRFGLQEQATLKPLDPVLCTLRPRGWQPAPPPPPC
CYP2D6, sequence (P10635 whole entry): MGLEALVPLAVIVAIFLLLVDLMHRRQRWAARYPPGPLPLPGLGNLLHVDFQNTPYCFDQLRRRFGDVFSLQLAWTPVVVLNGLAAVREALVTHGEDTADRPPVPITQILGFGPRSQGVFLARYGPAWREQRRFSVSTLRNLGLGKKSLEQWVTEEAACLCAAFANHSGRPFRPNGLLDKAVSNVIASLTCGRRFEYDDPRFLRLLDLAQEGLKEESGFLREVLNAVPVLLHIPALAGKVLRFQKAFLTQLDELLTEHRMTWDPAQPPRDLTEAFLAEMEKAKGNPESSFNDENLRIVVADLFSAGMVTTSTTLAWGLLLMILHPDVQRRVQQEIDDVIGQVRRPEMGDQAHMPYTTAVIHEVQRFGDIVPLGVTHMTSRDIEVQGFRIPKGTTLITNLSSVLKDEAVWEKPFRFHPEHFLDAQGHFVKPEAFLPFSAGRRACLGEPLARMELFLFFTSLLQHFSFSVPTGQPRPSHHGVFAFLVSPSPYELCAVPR

Row | Structure (SMILES) | inhibition at 1 h, 10 µM (CYP3A4) | IC50 [1] | logD [2] | further results
1 | CN(C)C(=O)C1CCN(c2cnccc2-n2cc(C(F)(F)F)cn2)CC1 | 47% | 65 nM | 2.1 | –
2 | O=C(NC1CC1)c1ccc(-c2cnccc2-c2ccccc2)cc1 | – | 74 nM | – | –
3 | CN(C)C(=O)C1CCN(c2cnccc2-n2cccn2)CC1 | 1% | 48 nM | 1.1 | –
4 | CN(C)C(=O)C1CCN(c2cnccc2-n2cc(Br)cn2)CC1 | 31% | 9.5 nM | 2.1 | –
5 | S=C(NC1CCCCC1)N1CCC(c2cnc[nH]2)CC1 [THIOPERAMIDE] | – | 430 nM | – | –
6 | CN(C)C(=O)C1CCN(c2cnccc2-n2cc(Cl)cn2)CC1 | 19% | 24 nM | – | –
7 | Cc1cnc(-c2ccncc2N2CCC(C(=O)N(C)C)CC2)s1 | 32% | 12 nM | 2 | –
8 | O=C(Nc1ccccc1)C1CCN(c2cncnc2-c2ccccc2)CC1 | 84% | 28 nM | 2.7 | –
9 | CN(C)C(=O)C1CCN(c2cncnc2-c2ccc(F)cc2)CC1 | 37% | 7.3 nM | 1.9 | –
10 | Cc1cnn(-c2ccncc2N2CCC(C(=O)N(C)C)CC2)c1 | 21% | 8.5 nM | 1.6 | inhibition at 1 h, 10 µM (CYP2C8): 2%; concentration at 1 h [3]: 179 µM; concentration at 1 h [4]: 0.102 µM; inhibition at 1 h, 10 µM (CYP2D6): 3%; inhibition in vivo at 30 mg/kg (Brain): 26%; inhibition at 1 h, 10 µM (CYP2C9): 19%
11 | Cc1ccn(-c2ccncc2N2CCC(C(=O)N(C)C)CC2)n1 | 5% | 1100 nM | 1.5 | –

The next lines start with results.

Row | inhibition at 1 h, 10 µM (CYP3A4) | IC50 [1] | logD [2] | Structure (SMILES) | further results
12 | 28% | 16 nM | 1.7 | CN(C)C(=O)C1CCN(c2cncnc2-c2ccccc2)CC1 | –
13 | – | 52 nM | – | O=C(NC1CC1)N1CCN(c2cnccc2-c2ccccc2)CC1 | –
14 | 31% | 72 nM | 1.4 | CNC(=O)C1CCN(c2cncnc2-c2ccccc2)CC1 | –
15 | 35% | 14 nM | 2.1 | CCN(C)C(=O)C1CCN(c2cncnc2-c2ccccc2)CC1 | –
16 | 29% | 160 nM | 1.3 | O=C(NC1CC1)C1CCN(c2cnccc2-c2ccccn2)CC1 | –
17 | – | 950 nM | – | O=C(NC1CC1)N1CCC(c2cnccc2-c2ccccc2)CC1 | –
18 | 83% | 8.1 nM | 2.5 | O=C(NC1CC1)C1CCN(c2cnccc2-c2ccccc2)CC1 | –
19 | 42% | 58 nM | 1.8 | CCNC(=O)C1CCN(c2cncnc2-c2ccccc2)CC1 | –
20 | 56% | 12 nM | 2.1 | CN(C)C(=O)C1CCN(c2cnccc2-n2cc(C3CC3)cn2)CC1 | –
21 | 50% | 44 nM | 1.8 | O=C(NC1CC1)C1CCN(c2cncnc2-c2ccccc2)CC1 | –
22 | 11% | 68 nM | 1.2 | CN(C)C(=O)C1CCN(c2cnccc2-c2ccccn2)CC1 | –
